# Source: patent US4772587A, “Dipeptide derivative of fatty acid” (Suntory Limited, priority 1985, dated 1988)
# Non-standard residues stand in square brackets, D forms with d. Residues, ends and D or L forms follow the SMILES beside them. *: point of attachment. Oleoyl = CCCCCCCC/C=C\CCCCCCCC(=O)*; Stearoyl = CCCCCCCCCCCCCCCCCC(=O)*; Palmitoyl = CCCCCCCCCCCCCCCC(=O)*; Nle = CCCC[CH](N)C(=O)O; Cbz = O=C(OCc1ccccc1)*
# What was measured:
# prolyl endopeptidase = prolyl endopeptidase (Elizabethkingia meningoseptica, UniProt P27028); assay: Measurement of anti-prolyl endopeptidase activity (decomposition of Z-glycyl-proline-β-naphthylamide); format: biochemical; settings: substrate Z-glycyl-proline-β-naphthylamide, phosphate buffer pH 7.0
# Procedure: The method of Yoshimoto and Tsuru (T. Yoshimoto and D. Tsuru, Agr. Biol. Chem. 42, 2417, 1978) was used to measure the anti-prolyl endopeptidase activities of several compounds of the present invention. A mixture of 0.0025M Z-glycyl-proline-β-naphthylamide (0.25 ml), 0.1M phosphate buffer (pH, 7.0; 0.99 ml) and a solution of a particular anti-prolyl endopeptidase compound (0.01 ml) was incubated in a test tube at 37° C. for 3 minutes. Thereafter, 0.1 ml of a solution of prolyl endopeptidase (0.2 U/ml) was added and the mixture was heated at 35° C. for 10 minutes. After the reaction, 2.0 ml of Triton X-100 in 1M acetate buffer (pH, 4.0) was added to the reaction mixture until the final concentration of the surfactant was 10%. The mixture was left at room temperature for 15 minutes and the absorbance (a) at 410 nm was measured.
# A sample for blind test was prepared by using the buffer instead of the anti-prolyl endopeptidase compound and its absorbance (b) was also measured. The percent inhibition of prolyl endopeptidase was calculated by the formula: ((b-a)/b)×100, and the amount of a specific compound to achieve 50% inhibition (IC50) was determined.
# [1] = system: experimental amnesia caused in rats by scopolamine; assay: Preventive effect against experimental amnesia caused in rats by scopolamine (passive avoidance learning); format: in vivo, Wister male rats; settings: for Avoidance time 24 hrs. later / Avoidance time 48 hrs. later / No. of amnesic rats/No. of rats tested / Percentage amnesia: scopolamine 3 mg/kg i.p. after learning
# Procedure: Several of the anti-prolyl endopeptidase compounds of the present invention were checked for their ability to prevent the inhibition of long-term memory fixation by scopolamine. Solutions of physiological saline (0.3 ml) that contained selected compounds of the present inventions in varying amounts ([…], 0.25 mg, 0.1 mg, 0.025 mg and 0.010 mg/kg) were administered intraperitoneally once a day to Wister male rats (100-120 g). One hour after the administration, electric shocks (1.7 mA) were applied to the rats so that they would acquire passive avoidance learning. Immediately thereafter, scopolamine was administered intraperitoneally to each rat in an amount of 3 mg per kg of body weight.
# The result of the test was assessed both 24 hours and 48 hours after the administration of scopolamine. The number of amnesic rats and of sound rats was counted for each of the control group (rats to which the test compounds had not been administered but to which only scopolamine and physiological saline had been administered intraperitoneally and the treated group (rats to which both the test compound and scopolamine had been administered). The results are shown in Table 3.
# [2] = system: experimental amnesia caused in rats by scopolamine; assay: as above; format: in vivo, Wister male rats; settings: for Avoidance time 48 hrs. later: sample 1 mg/kg i.p., scopolamine 3 mg/kg i.p. after learning
# [3] = administered orally (so in the source) in an amount of 1 mg/kg
# [4] = administered orally (so in the source) in an amount of 0.1 mg/kg
# [5] = administered orally (so in the source) in an amount of 0.025 mg/kg
# [6] = dose of 0.01 mg/kg (orally as printed)
# Chain of prolyl endopeptidase (P27028 21-705): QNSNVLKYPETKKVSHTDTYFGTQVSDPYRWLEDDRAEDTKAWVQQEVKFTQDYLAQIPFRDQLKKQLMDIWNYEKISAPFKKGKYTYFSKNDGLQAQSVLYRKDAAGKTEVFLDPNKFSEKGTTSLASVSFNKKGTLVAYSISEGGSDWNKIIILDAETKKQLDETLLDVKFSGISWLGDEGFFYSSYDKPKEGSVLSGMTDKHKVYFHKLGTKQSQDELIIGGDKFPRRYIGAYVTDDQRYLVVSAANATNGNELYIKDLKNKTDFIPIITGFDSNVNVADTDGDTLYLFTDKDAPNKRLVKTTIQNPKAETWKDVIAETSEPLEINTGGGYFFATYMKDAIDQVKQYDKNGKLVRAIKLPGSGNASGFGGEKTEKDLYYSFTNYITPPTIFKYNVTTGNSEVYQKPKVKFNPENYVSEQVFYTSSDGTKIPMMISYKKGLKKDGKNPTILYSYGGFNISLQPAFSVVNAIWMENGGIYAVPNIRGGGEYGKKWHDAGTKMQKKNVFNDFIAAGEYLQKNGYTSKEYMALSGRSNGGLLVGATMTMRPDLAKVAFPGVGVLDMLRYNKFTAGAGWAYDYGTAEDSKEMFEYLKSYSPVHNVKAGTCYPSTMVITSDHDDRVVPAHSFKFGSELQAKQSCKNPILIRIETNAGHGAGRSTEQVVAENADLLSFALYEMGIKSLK
Compound,IC50 (amount of compound to achieve 50% inhibition) (prolyl endopeptidase) [ng/test tube],Avoidance time 24 hrs. later ([1]; sample 100 μg/kg i.p.) [s],Avoidance time 48 hrs. later ([1]; sample 100 μg/kg i.p.) [s],No. of amnesic rats/No. of rats tested ([1]; sample 100 μg/kg i.p.),Percentage amnesia ([1]; sample 100 μg/kg i.p.) [%],"anti-amnesic action (in words) [2, 4]",Avoidance time 24 hrs. later ([1]; sample 25 μg/kg i.p.) [s],Avoidance time 48 hrs. later ([1]; sample 25 μg/kg i.p.) [s],No. of amnesic rats/No. of rats tested ([1]; sample 25 μg/kg i.p.),Percentage amnesia ([1]; sample 25 μg/kg i.p.) [%],"anti-amnesic action (in words) [2, 5]",further results
"CCCCCCCC/C=C\CCCCCCCC(=O)NC(C)C(=O)N1CCCC1C=O (stereo not shown) [SUAM 1092, oleoyl-Ala-pro-CHO]",12.0,,,,,,,,,,,
"CCCCCCCC/C=C\CCCCCCCC(=O)NC(CCCCNC(=O)OCc1ccccc1)C(=O)N1CCCC1C=O (stereo not shown) [SUAM 1216, oleoyl-Lys(Z)-Pro-CHO] (Oleoyl-Lys(Cbz)-Pro-aldehyde; configuration not given here)",0.6,,,,,,,,,,,
"CCCCCCCC/C=C\CCCCCCCC(=O)NC(C(=O)N1CCCC1C=O)C(C)C (stereo not drawn) [SUAM 1156, oleoyl-Val-Pro-CHO] (Oleoyl-Val-Pro-aldehyde; configuration not given here)",0.7,300,276.4,1/10,10,considerably excellent anti-amnesic action,,,,,,"anti-amnesic action (in words) [1, 3]: no remarkable effect; Avoidance time 24 hrs. later ([1]; sample 250 μg/kg i.p.): 240.6 s; Avoidance time 48 hrs. later ([1]; sample 250 μg/kg i.p.): 226.0 s; No. of amnesic rats/No. of rats tested ([1]; sample 250 μg/kg i.p.): 2/10; Percentage amnesia ([1]; sample 250 μg/kg i.p.): 20%; Avoidance time 24 hrs. later ([1]; sample 1 mg/kg i.p.): 184.0 s; No. of amnesic rats/No. of rats tested ([1]; sample 1 mg/kg i.p.): 5/10; Percentage amnesia ([1]; sample 1 mg/kg i.p.): 50%; Avoidance time 48 hrs. later [2]: 119.8 s"
"CCCCCCCC/C=C\CCCCCCCC(=O)NC(CC(C)C)C(=O)NC(CC(C)C)C(=O)N1CCCC1C=O (stereo not drawn) [SUAM 1158, oleoyl-Leu-Leu-Pro-CHO] (Oleoyl-Leu-Leu-Pro-aldehyde; configuration not given here)",80.0,300,300,0/10,0,strong anti-amnesic action,300,300,0/10,0,excellent effect,
"CCCCCCCCCCCCCCCC(=O)NC(CC(C)C)C(=O)N1CCCC1C=O (stereo not drawn) [SUAM 1155, palmitoyl-Leu-Pro-CHO] (Palmitoyl-Leu-Pro-aldehyde; configuration not given here)",0.7,300,300,0/10,0,strong anti-amnesic action,,,,,,
"CCCCCCCC/C=C\CCCCCCCC(=O)NC(CCC=O)C(=O)N1CCCC1C=O (stereo not shown) [SUAM 1217, oleoyl-Glu(CHO)-Pro-CHO]",0.3,,,,,,,,,,,
"CCCCCCCC/C=C\CCCCCCCC(=O)NC(CCSC)C(=O)N1CCCC1C=O (stereo not drawn) [SUAM 1214, oleoyl-Met-Pro-CHO] (Oleoyl-Met-Pro-aldehyde; configuration not given here)",0.6,300,276.4,1/10,10,,300,300,0/10,0,considerably excellent anti-amnesic action,"anti-amnesic action (in words) [1, 3]: no remarkable effect; anti-amnesic action (in words) [1, 6]: remarkable anti-amnesic action; Avoidance time 24 hrs. later ([1]; sample 10 μg/kg i.p.): 300 s; Avoidance time 48 hrs. later ([1]; sample 10 μg/kg i.p.): 300 s; No. of amnesic rats/No. of rats tested ([1]; sample 10 μg/kg i.p.): 0/10; Percentage amnesia ([1]; sample 10 μg/kg i.p.): 0%; Avoidance time 24 hrs. later ([1]; sample 250 μg/kg i.p.): 240.6 s; Avoidance time 48 hrs. later ([1]; sample 250 μg/kg i.p.): 226.0 s; No. of amnesic rats/No. of rats tested ([1]; sample 250 μg/kg i.p.): 2/10; Percentage amnesia ([1]; sample 250 μg/kg i.p.): 20%; Avoidance time 24 hrs. later ([1]; sample 1 mg/kg i.p.): 73.0 s; No. of amnesic rats/No. of rats tested ([1]; sample 1 mg/kg i.p.): 6/10; Percentage amnesia ([1]; sample 1 mg/kg i.p.): 60%; Avoidance time 48 hrs. later [2]: 103.0 s"
"CCCCCCCC/C=C\CCCCCCCC(=O)NC(CC(C)C)C(=O)N1CCCC1C=O (stereo not drawn) [SUAM 1140, Oleoyl-Leu-Pro-CHO] (Oleoyl-Leu-Pro-aldehyde; configuration not given here)",0.8,300,300,0/5,0,considerably excellent anti-amnesic action,300,300,0/5,0,,"anti-amnesic action (in words) [1, 3]: no remarkable effect; Avoidance time 24 hrs. later ([1]; sample 10 μg/kg i.p.): 185.0 s; Avoidance time 48 hrs. later ([1]; sample 10 μg/kg i.p.): 189.0 s; No. of amnesic rats/No. of rats tested ([1]; sample 10 μg/kg i.p.): 2/5; Percentage amnesia ([1]; sample 10 μg/kg i.p.): 40%; Avoidance time 24 hrs. later ([1]; sample 250 μg/kg i.p.): 263 s; Avoidance time 48 hrs. later ([1]; sample 250 μg/kg i.p.): 284 s; No. of amnesic rats/No. of rats tested ([1]; sample 250 μg/kg i.p.): 1/5; Percentage amnesia ([1]; sample 250 μg/kg i.p.): 20%; Avoidance time 24 hrs. later ([1]; sample 1 mg/kg i.p.): 73.0 s; No. of amnesic rats/No. of rats tested ([1]; sample 1 mg/kg i.p.): 3/5; Percentage amnesia ([1]; sample 1 mg/kg i.p.): 60%; Avoidance time 48 hrs. later [2]: 103.0 s"
linoleoyl-Leu-Pro-CHO [SUAM 1157],0.6,,,,,,,,,,,
"CCCCCCCC/C=C\CCCCCCCC(=O)NC(CCCC)C(=O)N1CCCC1C=O (stereo not drawn) [SUAM 1166, oleoyl-norLeu-Pro-CHO] (Oleoyl-[Nle]-Pro-aldehyde; configuration not given here)",0.8,,,,,,300,300,0/10,0,strong anti-amnesic action,
"CCCCCCCCCCCCCCCCCC(=O)NC(CC(C)C)C(=O)N1CCCC1C=O (stereo not drawn) [SUAM 1154, stearoyl-Leu-Pro-CHO] (Stearoyl-Leu-Pro-aldehyde; configuration not given here)",1.0,300,300,0/10,0,strong anti-amnesic action,,,,,,
"CCCCCCCC/C=C\CCCCCCCC(=O)N1CCCC1C(=O)N1CCCC1C=O (stereo not drawn) [SUAM 1215, Oleoyl-Pro-Pro-CHO] (Oleoyl-Pro-Pro-aldehyde; configuration not given here)",0.3,,,,,,300,300,0/10,0,strong anti-amnesic action,"anti-amnesic action (in words) [1, 6]: strong anti-amnesic action; Avoidance time 24 hrs. later ([1]; sample 10 μg/kg i.p.): 300 s; Avoidance time 48 hrs. later ([1]; sample 10 μg/kg i.p.): 300 s; No. of amnesic rats/No. of rats tested ([1]; sample 10 μg/kg i.p.): 0/10; Percentage amnesia ([1]; sample 10 μg/kg i.p.): 0%"
